Measured values: patent US7087648B1, “Methods for modulating macrophage proliferation using polyamine analogs” (The Regents of the University of California, priority 1997, dated 2006)

System: AIDS related lymphoma
Test: Clinical response to DEHOP in chemotherapy resistant AIDS related lymphoma patients
Format: in vivo, human
Conditions: for tumor relapse: after two cycles of DEHOP, no third cycle
Protocol: Four patients who had failed standard chemotherapy for treatment of their AIDS related lymphoma (therapy included at least CHOP chemotherapy up to six cycles). were evaluated for response to DEHOP administration in vivo. Patients had blood drawn pre administration of drug for evaluation of macrophage activation. This blood was also evaluated for response to DEHOP in vitro. […] Blood was obtained at 1 week after completion of the first and second cycles of therapy. The blood specimens were evaluated for macrophage proliferation (proliferating cell nuclear antigen, PCNA expression), and activation (percentage CD69 expression). Response to therapy was evaluated by direct observation of tumor (3 patients) and persistence or resolution of symptoms (1 patient with GI lymphoma).

## CCNCCCCNCCCCNCCCCNCC [DEHOP, 1,14-bis(ethylamino)-5,10-diazatetradecane]
Patient four, DEHOP sq for 5 days, 25 or 50 mg/m^2
  Response to Therapy: objective measured tumor response after first week of Rx: >50% objective measured tumor
Patient four
  tumor relapse: 47 days
Patient one, DEHOP sq for 5 days, 25 or 50 mg/m^2
  Response to Therapy: None
Patient three, DEHOP sq for 5 days, 25 or 50 mg/m^2
  Response to Therapy: Clinical Response
Patient three
  tumor relapse: 54 days
Patient two, DEHOP sq for 5 days, 25 or 50 mg/m^2
  Response to Therapy: None
patients, day 35 after initiation of study
  clinical response: objective and subjective responses
